Laboratory results taken from patent US10023565B2, “N,N′ substituted piperidinamine compounds, and preparation method and usage thereof” (Institute of Pharmacology and Toxicology Academy of …, priority 2013, dated 2018).

Experiments:
[1] = test system: six human breast cancer cell strains; test: Antitumor activity evaluation, statements on the whole panel; type: cell-based; details: compound alone
Description: In antitumor activity evaluation, six human breast cancer cell strains are selected, including BT474, SK-BR3 which are human breast cancer cell strains sensitive to lapatinib, BT/Lap^R1.0, SK/Lap^R1.0 which are human breast cancer cell strains with secondary resistance to lapatinib, MDA-MB-361, MDA-MB-453 which are human breast cancer cell strains with natural resistance tolapatinib.
Antitumor bioactivity evaluation of the compounds of Examples according to the method described below
(§1) Cells plating: a 100 mm culture dish with overgrown adherent cells was digested with 1 ml 0.25% trypsin (GIBCO) at 37° C. for 5 min, and the reaction was terminated with 2 ml culture medium (containing 10% FBS, GIBCO). The cells were scattered and collected, after counting, diluted to 1×10^5 cells/ml, and seeded into a 96-well plate at 50 μl/well, 5000 cells/well, excluding the peripheral circle of wells in which no cell was added, but PBS was added, 60 wells in total, and then incubated at 37° C. for 24 hours for adhering.
Addition of the compound and lapatinib: the test sample was diluted to a final concentration of 5 μM, and the culture medium with the corresponding compound solvent concentration was filled in the control well, the compound solvent concentration was kept consistent in each well, 5 parellel wells were set for each concentration, 25 μl each well, 25 μl culture medium (in combined group, 25 μl lapatinib was added till a final concentration of 1 μM) supplemented, followed by incubation at 37° C. for 72 hours.
(§2) Test after incubation at 37° C. for 72 hours: 50 μL of ATPlite kit substrate solution was added in each well, and vibrated for 3 min, followed by placing aside in darkness for 10 min, and then supernatant 100 μl/well was taken and placed on aluminescence test plate; the luminescence test plate that has been fully incubated was placed in a luminescence test instrument, to read luminescence value.
1. Cell survival rate (%)=Experimental group RLU/control group RLU×100%. The experimental data were subjected to data analysis and processing by utilizing GraphPad software.

HT-29 = test: Extended test against tumor cell lines (ATPlite); type: cell-based; details: HT-29 (colorectal cancer), 72 hours
Method: (§3) The compounds of Examples 36/37/40/47/49 were used to carry out extended test against tumor cell lines, wherein 12 kinds of cells were selected, including liver cancer cells, gastric cancer cells, pancreatic cancer cells, colorectal cancer cells, lung cancer cells and normal cells, which were shown in Table 12:
as §1, with “A” for “Cells plating: a”, “54” for “60”
(§4) The test sample was diluted to final concentration of 4, 1, 0.25, 0.063, 0.016 μM, culture medium was filled in control well, 3 parellel wells were set for each concentration, 50 μl each well, followed by incubation at 37° C. for 72 hours.
as §2, with “3) Test” for “Test”, “kitsubstrate” for “kit substrate”, “a luminescence” for “aluminescence”
(§5) Cell survival rate (%)=Experimental group RLU/control group RLU×100%. The experimental data were subjected to data analysis and processing by utilizing GraphPad software.

BGC823 = test: Extended test against tumor cell lines (ATPlite); type: cell-based; details: BGC823 (gastric cancer), 72 hours
Method: as §3
as §1, with “A” for “Cells plating: a”, “54” for “60”
as §4
as §2, with “3) Test” for “Test”, “kitsubstrate” for “kit substrate”, “a luminescence” for “aluminescence”
as §5

H460 = test: Extended test against tumor cell lines (ATPlite); type: cell-based; details: H460 (lung cancer), 72 hours
Method: as §3
as §1, with “A” for “Cells plating: a”, “54” for “60”
as §4
as §2, with “3) Test” for “Test”, “kitsubstrate” for “kit substrate”, “a luminescence” for “aluminescence”
as §5

[2] = test system: MRC5 (lung epithelial fibroblast); test: Extended test against tumor cell lines (ATPlite); type: cell-based; details: MRC5 (normal cells), 72 hours
Method: as §3
as §1, with “A” for “Cells plating: a”, “54” for “60”
as §4
as §2, with “3) Test” for “Test”, “kitsubstrate” for “kit substrate”, “a luminescence” for “aluminescence”
as §5

A549 = test: Extended test against tumor cell lines (ATPlite); type: cell-based; details: A549 (lung cancer), 72 hours
Method: as §3
as §1, with “A” for “Cells plating: a”, “54” for “60”
as §4
as §2, with “3) Test” for “Test”, “kitsubstrate” for “kit substrate”, “a luminescence” for “aluminescence”
as §5

AsPC-1 = test: Extended test against tumor cell lines (ATPlite); type: cell-based; details: AsPC-1 (pancreatic cancer), 72 hours
Method: as §3
as §1, with “A” for “Cells plating: a”, “54” for “60”
as §4
as §2, with “3) Test” for “Test”, “kitsubstrate” for “kit substrate”, “a luminescence” for “aluminescence”
as §5

COLO205 = test: Extended test against tumor cell lines (ATPlite); type: cell-based; details: COLO205 (colorectal cancer), 72 hours
Method: as §3
as §1, with “A” for “Cells plating: a”, “54” for “60”
as §4
as §2, with “3) Test” for “Test”, “kitsubstrate” for “kit substrate”, “a luminescence” for “aluminescence”
as §5

Huh-7 = test: Extended test against tumor cell lines (ATPlite); type: cell-based; details: Huh-7 (liver cancer), 72 hours
Method: as §3
as §1, with “A” for “Cells plating: a”, “54” for “60”
as §4
as §2, with “3) Test” for “Test”, “kitsubstrate” for “kit substrate”, “a luminescence” for “aluminescence”
as §5

MIA-PaCa-2 = test: Extended test against tumor cell lines (ATPlite); type: cell-based; details: MIA-PaCa-2 (pancreatic cancer), 72 hours
Method: as §3
as §1, with “A” for “Cells plating: a”, “54” for “60”
as §4
as §2, with “3) Test” for “Test”, “kitsubstrate” for “kit substrate”, “a luminescence” for “aluminescence”
as §5

N87 = test: Extended test against tumor cell lines (ATPlite); type: cell-based; details: N87 (gastric cancer), 72 hours
Method: as §3
as §1, with “A” for “Cells plating: a”, “54” for “60”
as §4
as §2, with “3) Test” for “Test”, “kitsubstrate” for “kit substrate”, “a luminescence” for “aluminescence”
as §5

BT/Lap^R1.0 = test: Antitumor bioactivity evaluation, breast cancer cells (ATPlite); type: cell-based, human; details: Homo sapiens
Method in brief: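 Single-concentration screen: 5 μM compound, or 5 μM compound plus 1 μM lapatinib, on adhered cells (5000/well) for 72 h. Viability by ATPlite luminescence relative to solvent control.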

[3] = test system: tumor cells and normal cells (12 kinds of cells); test: Extended test against tumor cell lines, statements on the whole panel; type: cell-based; details: 12 kinds of cells, 0.016-4 μM, 72 hours
Method: as §3
as §1, with “A” for “Cells plating: a”, “54” for “60”
as §4
as §2, with “3) Test” for “Test”, “kitsubstrate” for “kit substrate”, “a luminescence” for “aluminescence”
as §5

How did the “growth inhibition to the six human breast cancer cell strains” value [1] turn out when CSc1nccc(N2CCC(N(C)Cc3ccc(Cl)cc3Cl)CC2)n1 [Example 40, N-methyl-N-(2,4-dichlorobenzyl)-N-[1-(2-methylthiopyrimidin-4-yl)piperidin-4-yl]amine] was run?
Its value is “relatively significant growth inhibition”.

And the Survival rate (HT-29; 0.016 μM)?
The Survival rate was 100.6%.

What about the Survival rate (HT-29; 0.063 μM) of the same molecule?
Its Survival rate is 105.4%.

What about the Survival rate (HT-29; 0.25 μM) of the same molecule?
The Survival rate was 102%.

And the Survival rate (HT-29; 1 μM)?
The Survival rate was 89.2%.

And the Survival rate (HT-29; 4 μM)?
Its Survival rate is 41.2%.

What about the Survival rate (BGC823; 0.016 μM) of the same molecule?
Its Survival rate is 98.3%.

And the Survival rate (BGC823; 0.063 μM)?
The Survival rate was 103.1%.

What about the Survival rate (BGC823; 0.25 μM) of the same molecule?
Its Survival rate is 91.3%.

What about the Survival rate (BGC823; 1 μM) of the same molecule?
Its Survival rate is 73.7%.

And the Survival rate (BGC823; 4 μM)?
The Survival rate was 21.1%.

And the Survival rate (H460; 0.016 μM)?
The Survival rate was 98.7%.

And the Survival rate (H460; 0.063 μM)?
Its Survival rate is 98.7%.

What about the Survival rate (H460; 0.25 μM) of the same molecule?
Its Survival rate is 93.7%.

What about the Survival rate (H460; 1 μM) of the same molecule?
The Survival rate was 75.9%.

And the Survival rate (H460; 4 μM)?
Its Survival rate is 26.3%.

And the Survival rate ([2]; 0.016 μM)?
The Survival rate was 93.6%.

And the Survival rate ([2]; 0.063 μM)?
The Survival rate was 88.9%.

What about the Survival rate ([2]; 0.25 μM) of the same molecule?
The Survival rate was 91.9%.

And the Survival rate ([2]; 1 μM)?
Its Survival rate is 86.5%.

And the Survival rate ([2]; 4 μM)?
Its Survival rate is 67.6%.

And the Survival rate (A549; 0.016 μM)?
The Survival rate was 97.1%.

What about the Survival rate (A549; 0.063 μM) of the same molecule?
Its Survival rate is 95.9%.

What about the Survival rate (A549; 0.25 μM) of the same molecule?
The Survival rate was 95.3%.

What about the Survival rate (A549; 1 μM) of the same molecule?
Its Survival rate is 81.2%.

And the Survival rate (A549; 4 μM)?
The Survival rate was 38%.

What about the Survival rate (AsPC-1; 0.016 μM) of the same molecule?
Its Survival rate is 97.8%.

And the Survival rate (AsPC-1; 0.063 μM)?
The Survival rate was 96.1%.

What about the Survival rate (AsPC-1; 0.25 μM) of the same molecule?
Its Survival rate is 93.1%.

What about the Survival rate (AsPC-1; 1 μM) of the same molecule?
Its Survival rate is 83.3%.

And the Survival rate (AsPC-1; 4 μM)?
The Survival rate was 51.2%.

What about the Survival rate (COLO205; 0.016 μM) of the same molecule?
The Survival rate was 96.2%.

And the Survival rate (COLO205; 0.063 μM)?
Its Survival rate is 98.2%.

What about the Survival rate (COLO205; 0.25 μM) of the same molecule?
The Survival rate was 98.6%.

And the Survival rate (COLO205; 1 μM)?
Its Survival rate is 91.9%.

And the Survival rate (COLO205; 4 μM)?
The Survival rate was 30.3%.

And the Survival rate (Huh-7; 0.016 μM)?
Its Survival rate is 93.8%.

What about the Survival rate (Huh-7; 0.063 μM) of the same molecule?
The Survival rate was 90.7%.

And the Survival rate (Huh-7; 0.25 μM)?
Its Survival rate is 87.3%.

And the Survival rate (Huh-7; 1 μM)?
Its Survival rate is 65.2%.

What about the Survival rate (Huh-7; 4 μM) of the same molecule?
The Survival rate was 14.3%.

What about the Survival rate (MIA-PaCa-2; 0.016 μM) of the same molecule?
Its Survival rate is 94.6%.

What about the Survival rate (MIA-PaCa-2; 0.063 μM) of the same molecule?
Its Survival rate is 94.8%.

What about the Survival rate (MIA-PaCa-2; 0.25 μM) of the same molecule?
Its Survival rate is 90.2%.

And the Survival rate (MIA-PaCa-2; 1 μM)?
The Survival rate was 77.3%.

What about the Survival rate (MIA-PaCa-2; 4 μM) of the same molecule?
Its Survival rate is 20.6%.

What about the Survival rate (N87; 0.016 μM) of the same molecule?
Its Survival rate is 97.9%.

And the Survival rate (N87; 0.063 μM)?
The Survival rate was 92.7%.

And the Survival rate (N87; 0.25 μM)?
The Survival rate was 89.7%.

What about the Survival rate (N87; 1 μM) of the same molecule?
The Survival rate was 71.5%.

What about the Survival rate (N87; 4 μM) of the same molecule?
The Survival rate was 36.3%.

And the IC50 (BT/Lap^R1.0)?
The IC50 was 1.68 µM.

And the inhibition at 5 µM (BT/Lap^R1.0; test sample 5 μM, 72 hours, read-out: Inhibitory Rate % BT/Lap^R1.0)?
The inhibition at 5 µM was 68.1%.

What about the “inhibition of tumor cells versus cytotoxicity to normal cells” value [3] of the same molecule?
The value was “slightly stronger inhibition to liver cancer than that to other tumor cells, and exhibited cytotoxicity to normal cells lower than inhibition to tumor cells”.
